Experiments:
U937 cells = assay: Cell viability assay (CellTiter-Blue) on lymphoma cell line U937; assay type: cell-based; settings: Homo sapiens, U-937, 72 h treatment
Procedure: Cell culture. U-937 cells were grown in an incubator equilibrated at 37° C. with 5% CO2, grown to confluence and split with Trypsin/EDTA (Gibco, […]01) once or twice a week according to confluence. U-937 (ATCC, HTB-132) were cultured in RPMI 1640 GLUTAMAX (ThermoFisher Scientific, 61870044) supplemented with 10% Fetal Bovine Serum (FBS, Gibco, 10270-106) and Penicillin-Streptomycin mixture (BioWhittaker/Lonza, DE17-602E). […] Peripheral blood samples were collected from distinct healthy donors (Etablissement Français du Sang). Pan monocytes were isolated by negative magnetic sorting using microbeads according to the manufacturer's instructions (Miltenyi Biotec, 130-096-537), and cultured in RPMI 1640 supplemented with glutamine (Thermo Fisher Scientific, 61870010), 10% fetal bovine serum and exposed to granulocyte-macrophage colony-stimulating factor (GM-CSF, Miltenyi Biotec, 130-093-866, 100 ng/mL) to induce differentiation into macrophages (MDM). […] Cell viability assay (IC50). Cell viability assay was carried out by plating 1000 cells/well in 96-well plates. Cells were treated for 72 h in a range between to 25 nM and […] using serial dilutions. The inventors followed the manufacturer's protocol. In brief, CellTiter-Blue® reagent (G8081, Promega) was added after 72 h treatment and cells were incubated for 3 h before recording fluorescence intensities (λex. 560/20 nm; λem. 590/10 nm) using a Perkin Elmer Wallac 1420 Victor2 Microplate Reader.

lymphocytes (CD4, CD8) = assay: Activation of CD4 and CD8 lymphocytes (CD25, CD69 flow cytometry); assay type: cell-based, human; settings: LCC-12 10 μM, 48 h, CD3/CD28 activation; FIG. 6A-B
Procedure: (§1) CD4 Lymphocytes. Peripheral blood samples were collected from healthy donors (Etablissement Français du Sang). CD4 lymphocytes were isolated by negative magnetic sorting using microbeads according to the manufacturer's instructions (Miltenyi Biotec, 130-096-533) and cultured in RPM11640 supplemented with glutamine and 10% fetal bovine serum. CD4 lymphocytes were activated for 48 h using CD3/CD28 antibodies (2.5 μg/mL), in presence of LCC-12 (10 μM). The activation status of the lymphocytes was assessed by measuring CD25 and CD69 surface markers by flow cytometry.
as §1, with “CD8” for “CD4”, “130-096-495)” for “130-096-533)”, “activated” for “activated for”

[1] = Copper-catalyzed oxidation of NADH by H2O2 (cell-free); assay type: biochemical; settings: H2O2 present; FIG. 3C
Procedure: Copper-catalyzed oxidation of NADH. The oxidation kinetics of NADH (N4505, Sigma-Aldrich) was followed by measurement of absorbance at 340 nm using a NanoDrop 2000. Measurements were performed at 26° C. A 10 mM sodium phosphate buffer adjusted to pH=7.2 was used as solvent. Each 500 μL mixture were prepared with NADH (400 μM), imidazole (56750, Sigma-Aldrich, 10 mM), CuSO4 (451657, Sigma-Aldrich, 4 μM), LCC/K2CO3 solution (1:1) (4 μM or 400 μM), metformin/K2CO3 solution (2:1) (J63361, Alfa Aesar, 800 μM), as indicated, and a H2O2 solution (16911, Sigma-Aldrich, 2 mM from an aq. solution 25-35% in H2O2) added at the reaction start time. The concentration of NADH was calculated from the measured absorbance at 340 nm and a molar extinction coefficient of […] L mol^−1 cm^−1.

[2] = tested on: biopsy-derived organoids of PDAC; assay: Chemograms on biopsy-derived organoids of pancreatic ductal adenocarcinoma; assay type: cell-based, human; settings: 72 h, CellTiter-Glo 3D; FIG. 9
Excerpt: Biopsy-derived pancreatic organoid (BDPO) generation. BDPOs were obtained from endoscopic ultrasound-guided fine-needle aspirations (EUS-FNA) from patients with PDAC included under the PaCaOmics clinical trial (ClinicalTrials.gov: NCT01692873) after approval by the Paoli-Calmettes hospital ethics committee and following patient informed consent. Cultures were established as previously described. Briefly, PDAC biopsies were slightly digested with the Tumor Dissociation Kit (Miltenyi Biotec) at 37° C. for 5 minutes. The pancreatic tissue slurry was transferred into a tissue strainer 100 μm and was placed into 12-well plates coated with 150 μL GFR matrigel (Corning, Boulogne-Billancourt, France). […]
Chemograms on BDPO. […] 24 hours later, one plate was used directly for RNA preparation (Time 0 transcriptome) and on the other the medium was supplemented with increasing concentrations of each drug, 72 hours later cell viability was measured with CellTiter-Glo 3D (Promega) reagent quantified using the plate reader Tristar LB941 (Berthold Technologies). Values were normalized and expressed as the percentage of the control (vehicle), which represents 100% of normalized fluorescence. […]

Maximum tolerated dose = settings: stated relative to the 0.3 mg/kg/day dose used

Question: Which results are given for N=C(N)NC(=N)NCCCCCCCCCCCCNC(=N)NC(=N)N [LCC-12, lipophilic copper clamp C12]?
Answer: IC50 (U937 cells): 2 µM; activation of lymphocytes (lymphocytes (CD4, CD8)): decreases the activation; rate of NADH oxidation catalyzed by copper(II) [1]: more pronounced effect; efficacy (IC50) on biopsy-derived organoids of PDAC [2]: low micromolar range; maximum tolerated dose (MTD) (Maximum tolerated dose): 0.3 mg/kg/day, a dose 10 times lower than the maximum tolerated dose

Reference: patent US20230416196A1, “DIMER OF BIGUANIDINES AND THEIR THERAPEUTIC USES” (INSTITUT CURIE, priority 2020, published 2023)
